Source: patent US20220031690A1, “ANTI-NEURODEGENERATIVE DISEASE AGENT” (Hayashibara Co., Ltd., priority 2018, published 2022)

Assays:
PC12-HS cells [1] = assay: Evaluation method A: neurocyte growth acceleration activity (Alamar blue); format: cell-based, rat; conditions: for Cell proliferation rate (%): negative control = 100%; for neurocyte growth acceleration activity (in words): 40, 200 and 1,000 nM, comment on Table 2
Text: (§1) As a model of the nerve cell, the NGF (nerve growth factor) highly sensitive strain of PC12 cell derived from the rat adrenal pheochromocytoma (hereinafter referred to as “PC12-HS cell”; JCRB cell bank, National Research and Development Institute of Health and Nutrition), which has been widely used as a suitable model for research on human neurodegenerative disease, was used. As the test compound, […] of trimethine cyanine dye compounds; NK-5 (Chemical formula 2), NK-36 (Chemical formula 3), NK-44 (Chemical formula 5) and dye compounds represented by Chemical formulae 12 to 18, and NK-6 (Chemical formula 7), which is a monomethine cyanine dye, were selected. In addition, two kinds of ethylene cross-linked dyes (Chemical formulae 19 and 20), 15 kinds of monomethine cyanine dyes (Chemical formulae 21 to 35), and seven kinds of trimethine cyanine dyes (Chemical formulae 36 to 42), which were expected to have a good neurocyte growth acceleration activity and/or neurite-outgrowth promoting activity in the screening disclosed in Patent literature 6, were also re-evaluated for comparison. The Chemical formulae 12 to 42 are shown below.
(§2) The cyanine dye compounds subjected to the test (purity 97% by mass or more, synthesized by Hayashibara Co., Ltd., Okayama, Japan) were individually dissolved in DMSO (product number “D8418”, commercialized by SIGMA Corporation) at a concentration of 5 mg/ml, and the solutions were then filtered through DMSO-resistant membrane (“Millex-LGS LLG025SS”, commercialized by Millipore Corporation) and stored at 25° C. in a dark condition. At the time of use, they were further diluted with Dulbecco's Medium (hereinafter, abbreviated as “D-MEM medium”, commercialized by Nissui Pharmaceutical Co., Ltd.) supplemented by 10% by volume of fetal bovine serum (FBS), and subjected to the test.
PC12-HS cells were subjected to tests after frozen stock cultured cells were thawed and cultured with a D-MEM medium supplemented with 10% by volume of FBS (Hereinafter, when the term “culture” is simply used, it means that the cells are statically cultured in an incubator controlled at 37° C. under 5% by volume of CO2 conditions). Cells used in the test were collected using 0.25% by weight of trypsin solution, then diluted with a D-MEM medium supplemented with 10% by volume of FBS (hereinafter referred to as “culture medium”), seeded into collagen-coated 96-well plates (commercialized by Falcon, Tokyo, Japan, “Microtest Plate, Cell Culture, Flat Bottom”) to obtain 5×10^3 cells/100 μl/well, and cultured for 24 hours (hereinafter referred to as “pre-culture”). Then, the above test samples were diluted with a culture medium, and 100 μl of diluted solution of the test compounds were added to each well so that the final concentration of the test compounds in the wells became 50 ng/ml, and the cells were cultured for another three days. On day 3, the cultures supernatant was removed from each well, 200 μl of culture medium containing 10% by volume of Alamar blue reagents (commercialized by Trek Diagnostic Systems Inc., Ohio, USA) were added to each well, and the cells were cultured for 6 hours. After culturing for 6 hours, the cells were measured for fluorescent intensity at a wavelength of 544-590 nm by “FlexStation 3”, a product name of a fluorescent plate reader (commercialized by Japan Molecular Devices Corporation, Tokyo, Japan). […] Measurements were performed for each test compound in triplicate, and the mean values were shown.
The method was based on Experiment 1-1, except the concentrations of the test compounds were set to three doses of 40 nM, 200 nM and 1,000 nM for evaluation method A (neurocyte growth accelerating effect), and two doses of 200 nM and 1,000 nM for evaluation method B (neurite outgrowth promoting effect). […]

PC12-HS cells [2] = assay: Evaluation method B: neurite-outgrowth promoting activity in the presence of NGF; format: cell-based, rat; conditions: for Neurite-outgrowth rate (%) / Action on PC12-HS neurite-outgrowth promotion (500 ng/ml): NGF 10 ng/ml; for Action on PC12-HS neurite-outgrowth promotion (500 ng/ml): 3 days, class of neurite-outgrowth rate; for neurite-outgrowth promoting activity (in words): 200 and 1,000 nM, comment on Table 2
Text: as §1, §2
As in the case of evaluation of neurocyte growth accelerating activity (Evaluation method A), 50 μl/well of each test compound solution, prepared by diluting with the culture medium to give a final concentration of 500 ng/ml, and the culture medium containing 20 ng/ml of mouse NGF (mouse derived, final concentration 10 ng/ml, commercialized by Chemicon International, Inc., CA, USA) (50 μl/well) were added to the precultured PC12-HS cells in each well, and then cultured for three days. Culture medium was removed on day 3 of culture, and cells were fixed by adding 100 μl/well of 10% by volume of glutaraldehyde and standing for 20 minutes at room temperature. As a negative control, PC12-HS cells, cultured for three days with culture medium, were fixed with glutaraldehyde similarly as above. Fixed cells were observed under a microscope to assess the neurite-outgrowth. The neurite-outgrowth rate (%) was determined by observing the cells using a microscope by adjusting the magnitude to give about 100 cells in one visual field, counting the number of cells having neurites twice or more in length of the cell body (major axis), dividing by the total number of cells in the same visual field, and multiplying by 100. Measurements were carried out at three points for each test compound. […] In this experiment, the neurite-outgrowth rate was 5% or less when NGF was added (final concentration 10 ng/ml) without the addition of the test compound.
The method was based on Experiment 1-1, except the concentrations of the test compounds were set to three doses of 40 nM, 200 nM and 1,000 nM for evaluation method A (neurocyte growth accelerating effect), and two doses of 200 nM and 1,000 nM for evaluation method B (neurite outgrowth promoting effect). Measurements were performed in triplicate for each concentration of each test compound in both evaluation methods A and B. The result of the evaluation method A was expressed as a cell proliferation rate (%) by determined a relative percentage (%) when the value of the negative control to which the test compound was not added, was regarded as 100%. […]

[3] = DPPH radical scavenging ability (absorbance method); format: biochemical; conditions: ethanol, room temperature, 2 hours, absorbance at 490 nm
Text: 2,2-Diphenyl-1-picrylhydrazyl (hereinafter referred to as “DPPH”) is a radical with an unpaired electron and has the oxidizing ability of other substances. In addition, because it is stable and easy to handle, it is widely used as an artificial radical-like substance for measuring the antioxidant ability of antioxidants. When DPPH reacts with a substance having antioxidant ability, it loses its own oxidizing ability and its color changes from deep purple to […].
DPPH (commercialized by Tokyo Kasei Kogyo Co., Ltd., Tokyo, Japan) was dissolved in ethanol to prepare a 167 μM DPPH ethanol solution, and 90 μl of the solution was added to each well of the 96-well microplate. A 60 μl each of the test compound serially diluted with ethanol was added to the DPPH ethanol solution, and the mixture was reacted at room temperature for 2 hours, and then the absorbance at 490 nm was measured. […] From those value, the 50% inhibitory concentration of the DPPH radical (Hereinafter, it is referred to as “IC50”) was calculated.

Structure (SMILES)	Cell proliferation rate (%) (PC12-HS cells [1]; 1.000 nM)	Cell proliferation rate (%) (PC12-HS cells [1]; 40 nM)	Cell proliferation rate (%) (PC12-HS cells [1]; 200 nM)	neurocyte growth acceleration activity (in words) (PC12-HS cells [1])	Neurite-outgrowth rate (%) (PC12-HS cells [2]; 1.000 nM)	Neurite-outgrowth rate (%) (PC12-HS cells [2]; 200 nM)	Action on PC12-HS neurite-outgrowth promotion (500 ng/ml) (PC12-HS cells [2])	neurite-outgrowth promoting activity (in words) (PC12-HS cells [2])	Action on PC12-HS growth acceleration (50 ng/ml) (PC12-HS cells [1]; 50 ng/ml, 3 days culture, class of cell proliferation rate vs negative control = 100%)	IC50 [3]
CCN1C(=CC(C)=Cc2sc3ccccc3[n+]2CCCS(=O)(=O)[O-])Sc2ccccc21 [NK-4781]	89.1%	110.0%	106.6%	almost no growth acceleration activity	88.3%	31.2%	⊚ (45% or more was judged to be more potent than NK-4 (“double circle”))	stronger neurite-outgrowth promoting activity than NK-4		
CC1=CO/C(=C\C=C\c2occ(C)[n+]2C)N1C.F[P-](F)(F)(F)(F)F [NK-10089]	91.6%	110.6%	123.4%	slightly weaker activity than NK-6 and NK-36	29.3%	0.0%			◯ (the relative value of 130% to 169% was judged to be equivalent to NK-4 (“circle”))	
COC1C=CC=CC1=CC=CC1=[N+](C)c2ccc3ccccc3c2C1(C)C.Cc1ccc(S(=O)(=O)[O-])cc1 (stereo not drawn) [NK-10214]	103.3%	109.3%	123.1%	slightly weaker activity than NK-6 and NK-36	48.8%	23.6%	⊚ (45% or more was judged to be more potent than NK-4 (“double circle”))	stronger neurite-outgrowth promoting activity than NK-4		
CCn1ccc(=O)c2ccccc21 [NKX-4076]										≥ 10 mM
